Assays:
[1] = system: epithelial endometrial cells; test: Morphometric analysis of surface epithelial cells in hormone-stimulated endometrium assembloid; assay type: cell-based, human
Description: (§1) Hormone stimulation scheme aimed to recapitulate the mid-secretory phase of human endometrial cycle when receptive phenotype optimal for embryo implantation, known as window of implantation, is acquired. For this purpose, β-oestradiol (E2) stimulation was started in upper and lower compartments for 4 days to simulate the proliferative phase of human endometrial cycle. A total volume of 300 μL of organoid media supplemented by 2% charcoal stripped FBS (Sigma Aldrich, F6765) and 10 nM of β-oestradiol (E2, Sigma E4389) was added to the top compartment of the transwell culture system. A total volume of 1 mL of hEnSC medium supplemented by 2% charcoal stripped FBS (Sigma Aldrich, F6765) and 10 nM of β-oestradiol (E2, Sigma E4389) was added to the lower compartment. Media were changed each 2 days. After 4 days, upper and lower compartments were stimulated with full hormone mixture containing E2, progesterone (P4) and 8-bromoadenosine 3′,5′-cyclic monophosphate (CAMP) for 8 days. A total volume of 300 μL of organoid media supplemented by 2% charcoal stripped FBS (Sigma Aldrich, F6765), 10 nM of E2 (Sigma E4389), 1 μM of P4 (Sigma P7556) and 1 μM of cAMP (Sigma, B7880) was added to the top compartment of the transwell culture system. A total volume of 1 mL of hEnSC medium supplemented by 2% charcoal stripped FBS (Sigma Aldrich, F6765) and […] (Sigma E4389), 1 μM of P4 (Sigma P7556) and […] (Sigma, B7880) was added to the lower compartment. Media were changed each 2 days.
(§2) Morphometric analyses were performed on stromal and epithelial compartments on proliferative phase (after 4 days of E2 stimulation) and secretory phase (after 8 days of stimulation with E2, P4 and cAMP).
Cell segmentation and cell morphometric analyses were performed from confocal microscopy images of stromal and epithelial compartment. Vimentin and cytokeratin-7 were used as stromal and epithelial markers, respectively, to determine stromal and epithelial compartment. Phalloidin signal was used to perform cell segmentation of stromal and epithelial compartments. Cell segmentation was done in an intermediate field of the whole Z-stack, choosing a relatively flat area to maximize the accuracy of the segmentation using Fiji (https://imagej.net/software/fiji/).
Epithelial cells were segmented manually using polygon selection tool from Fiji. Cell contour was drawn with multiple points to accurately fit perimeter of each cell segmented. Fit spline option (“Edit”>“Selection”>“Fit spline”) was used in all cases to smooth cell contour and maximize the match of manual cell segmentation with cell perimeter. Each Region Of Interest (ROI) corresponding to each epithelial cell segmented was added to ROI manager (“Analyse”>“Tools” >“ROI manager”).
Once acquired all ROI, the following measurements were set (“Analyse”>“Set Measurements”): area (μm^2), perimeter (μm), and shape descriptors roundness, circularity, aspect ratio, and solidity. Roundness ((4·area)/(π·major axis^2)) ranges from 0 to 1 indicating elongated or circle-like shape. Circularity (4π·area/perimeter^2) ranges from 0 to 1 and correlates with shape roughness. Aspect ratio is defined as the ratio between major and minor axis of the best fit ellipse. Solidity, defined as a ratio between area and convex area, ranges from 0 to 1, describing a concave or convex shape.

[2] = system: endometrial stromal cells; test: Morphometric analysis of stromal cells in hormone-stimulated endometrium assembloid; assay type: cell-based, human
Description: as §1, §2
Cell segmentation and cell morphometric analyses were performed from confocal microscopy images of stromal and epithelial compartment. […]
Stromal length (μm) and width (μm) were acquired for each cell using the line tool from Fiji. […] In this case, only line measurements (in μm) corresponding to length and width of each stromal cell were recorded to calculate length/width ratio. […]

[3] = stromal cells, proliferative (E2 4 days) vs secretory (E2, P4 and cAMP 8 days)

SMILES: C[C@]12CC[C@@H]3c4ccc(O)cc4CC[C@H]3[C@@H]1CC[C@@H]2O [E2, β-oestradiol]
- surface area (median) ([1]; proliferative (E2 4 days) vs secretory (E2, P4 and cAMP 8 days)): 75.67 μm^2
- aspect ratio (AR) (median) ([1]; proliferative vs secretory): 1.584
- cell perimeters (median) ([1]; proliferative vs secretory): 34.61 μm
- cell roundness (median) ([1]; proliferative vs secretory): 0.6315
- circularity (median) ([1]; proliferative vs secretory): 0.7920
- solidity (median) ([1]; proliferative vs secretory): 0.9820
- length/width ratio (median) ([2]; stromal cells in 3D, proliferative phase = E2 4 days, secretory phase = E2, P4 and cAMP 8 days): 9.14
- cell length (median) [2, 3]: 105.4 μm
- cell width (median) [2, 3]: 11.39 μm

Source: patent US20260055375A1, “CULTURE METHOD” (Babraham Institute, priority 2023, published 2026)
